According to paper PMC4428793, “MK571 inhibits phase-2 conjugation of flavonols by Caco-2/TC7 cells, but does not specifically inhibit their apical efflux^” (Biochemical Pharmacology, 2015):
Several values for one entry are separate records, joined by “and”; a condition that tells them apart may be missing. Equal entries are not always repeated.

Legend:
[1] = tested on: Bcrp1; set-up: method as in PMID 15749994; details: Mrp2 deficient rats; ref [33]; cited from earlier work
[2] = tested on: UDP-β-D-glucuronosyl transferase (UDP-GT) activity in the Caco2 cell-free extracts; assay: Enzyme kinetics of kaempferol glucuronidation in Caco2 cell-free extracts (Km, Vmax, Ki); assay type: biochemical, human; details: substrate kaempferol 5–150 μM; estimated from reciprocal plots; read-out: Ki for inhibition of the synthesis of K-4′-O-GlcA
Experimental: Cells were grown until 21 days post confluent and washed and aspirated as described previously. The cells were then scraped into tubes and these tubes kept on ice at all times throughout the preparation procedure. Homogenisation buffer comprised of sodium phosphate buffer (50 mM adjusted to pH 6.5; 20 mL), two mini protease inhibitor cocktail tablets containing EDTA and perfabloc, dithiothreitol (30.8 mg), alamethacin (20 μL of a 22 μg/mL) solution from T. viride; and MgCl2 (3.5 mg). Cell-free homogenates were prepared by mixing cells with homogenisation buffer (50:50, vol/vol) and vortexing with glass beads in an eppendorf tube three times for 1 min over a 10 min period. […] The supernatant was removed and analysed via HPLC.
Estimates of initial rates (v) of formation of flavonol conjugates by UDP-β-D-glucuronosyl transferase (UDP-GT) activity in the Caco2 cell-free extracts were calculated for each concentration of S (S = kaempferol; [S] range 5–150 μM). […] The type of inhibition was determined by plotting 1/v versus 1/S for each of the inhibitor (MK571) concentrations tested and observing the location of the intersection of the lines, which also gave estimated values for Km and Vmax. […]

[3] = tested on: Caco-2/TC7 cells; assay: Flavonol metabolism and transport experiments on Caco-2/TC7 transwell monolayers, effect of MK571; assay type: cell-based, human
Experimental: Cells were grown at 37 °C in a humidified incubator with 5% CO2 in Dulbecco Modified Eagle's Medium (DMEM) containing 1% non-essential amino acids, 1% L-glutamine, 100 IU/mL penicillin and 100 μg/mL streptomycin, 1 g/L glucose, and supplemented with 20% (v/v) heat inactivated fetal calf serum. Cells were passaged at 80% confluency, and seeded at 2–4 × 10^4 cells per cm^2 on 10 cm dishes (growing area 75 cm^2) or 12-well transwells (growing area of 1.1 cm^2). […] Toxicity of MK571 on Caco-2/TC7 cell monolayers was determined through comparison of pre- and post-loading TEER values of wells incubated with MK571.
Flavonol stocks (quercetin, kaempferol, galangin; 10 mM) were prepared in dimethylsulfoxide (DMSO) and stored at −20 °C. MK571 was dissolved in dimethyl sulfoxide (10 mM final concentration) and stored at −20 °C. Prior to the metabolism or transport experiments, cells were aspirated of media and washed three times with phosphate buffered saline (PBS). To foetal calf serum and phenol red-free DMEM was added ascorbic acid at a final concentration of 100 μM as well as MK571 at the desired concentration. For metabolism experiments, 10 mL of this media was added to the cells in 10 cm dishes. For transport experiments using transwells, 0.6 mL of this media was added to the apical compartment of the transwell and 1 mL was added to the basolateral compartment. Control wells received an equivalent dose of dimethyl sulfoxide as the treatment wells. Cells were incubated at 37 °C for 30 min, after which flavonols dissolved in dimethyl sulfoxide (kaempferol, galangin or quercetin) were added to the media of treatment wells at a final concentration of 40 or 100 μM, while control wells were treated with the dimethyl sulfoxide vehicle alone. Concentrations of quercetin were increased to 100 μM because instability of quercetin in media necessitated higher initial loading to maintain adequate cellular and media concentrations for uptake and metabolism of the flavonol. Control and treatment cells were incubated at 37 °C for the periods indicated in the results.
Following the required incubation period, media and cell fractions were harvested and analysed to identify and quantify flavonol metabolites using HPLC. Media was removed from the apical (0.5 mL) and basolateral (0.5 mL) compartments of transwells and added to 25 μL trifluoroacetic acid and 25 μL HPLC grade acetonitrile. Media from 10 cm dishes (1 mL) was removed and added to 50 μL trifluoroacetic acid and 25 μL HPLC grade acetonitrile. Cells were washed three times with cold (room temperature) phosphate buffered saline solution and scraped free of the dish surface. For transwells, 100 μL MilliQ water was added to the cells and the resulting cell suspension pipetted into 10 μL trifluoroacetic acid and 10 μL HPLC grade acetonitrile. For 10 cm dishes, the resulting cell suspension was pipetted into 25 μL trifluoroacetic acid and 25 μL HPLC grade acetonitrile. Samples were either analysed immediately or otherwise stored at −20 °C prior to HPLC analysis. Flavonols were stable during frozen storage and thawing (no significant losses up to 26 weeks).
Media samples were thawed where necessary and then mixed using a vortex mixer, centrifuged for 10 min at 14,000 × g using a micro centrifuge, and the supernatant removed and placed in an HPLC vial for analysis. Cell samples were vortex-mixed and then ultra-sonicated (sonic water bath) for 10 min, vortex mixed again and then centrifuged for 10 min at 14,000 × g using a micro-centrifuge, before removal of supernatant for HPLC analysis. Identification and quantification of individual flavonol metabolites was carried out using liquid chromatography–mass spectrometry and nuclear magnetic resonance analyses, as described previously. […]

[4] = tested on: Caco-2 cell culture model; set-up: method as in PMID 12893842; details: 50 μM MK571; ref [39]; cited from earlier work
[5] = tested on: Caco-2 cells; details: cited from earlier work
[6] = 50 μM MK571, vs vehicle-only control, transwell monolayers
[7] = galangin 40 μM + 50 μM MK571 apical, 60 min
[8] = in the presence of MK571 (Table 1: 50 μM)
[9] = kaempferol 40 μM + 50 μM MK571 apical, 60 min
[10] = kaempferol 40 μM + 100 μM MK571 apical, 60 min
[11] = quercetin 100 μM + 50 μM MK571 apical, 60 min
[12] = 50 μM MK571, Caco-2 cells, ref Walle et al. [28]

## COc1ccc2c3c([nH]c2c1)[C@H](C=C(C)C)N1C(=O)[C@@H]2CCCN2C(=O)[C@@H]1C3 [FTC]
[1]
  Total plasma quercetin and isorhamnetin concentrations: twice that of controls

## CN(C)C(=O)CCSC(SCCC(=O)O)c1cccc(/C=C/c2ccc3ccc(Cl)cc3n2)c1 (stereo not shown) [MK571]
[2]
  Ki: 19.7 µM
[3]; 50 μM MK571
  Increase in galangin aglycone concentration of the cellular extract: +180%
  Increase in kaempferol aglycone concentration of the cellular extract: +182%
  Increase in quercetin aglycone concentration of the cellular extract: +119%
  Reduction in production of kaempferol sulphates: 50.8%
  Reduction in production of total kaempferol glucuronides: 52.3%
[3]; 50 μM MK571, vs no MK571, transwell monolayers
  Reduction in apical efflux of kaempferol conjugates: 44% and 43.2%
[3]; [6]
  Reduction in apical efflux of galangin conjugates: 38% and 38.5%
  Reduction in apical efflux of quercetin conjugates: 37.1%
[3]; 100 μM MK571
  Increase in kaempferol aglycone concentration of the cellular extract: +229%
  Reduction in production of kaempferol sulphates: 88.4%
  Reduction in production of total kaempferol glucuronides: 67.2%
[3]; [7]
  Apical galangin conjugates, change vs no MK571: −38.5%
  Apical galangin conjugates, rate: 1.789 nmol/h
  Basolateral galangin conjugates, change vs no MK571: −43.6%
  Basolateral galangin conjugates, rate: 2.279 nmol/h
  Cellular galangin conjugates, change vs no MK571: −28.7%
  Cellular galangin conjugates, rate: 0.004 nmol/h
  Total galangin conjugates, change vs no MK571: −41.4%
  Total galangin conjugates, rate: 4.072 nmol/h
[3]; [8]
  Decrease in galangin glucuronides: 42.8%
  Decrease in galangin sulphates: 37.0%
  Decrease in quercetin glucuronides: 56.5%
  Decrease in quercetin sulphates: 39.6%
[3]; [9]
  Apical kaempferol conjugates, change vs no MK571: −43.2%
  Apical kaempferol conjugates, rate: 1.196 nmol/h
  Basolateral kaempferol conjugates, change vs no MK571: −56.7%
  Basolateral kaempferol conjugates, rate: 1.484 nmol/h
  Cellular kaempferol conjugates, change vs no MK571: −20.0%
  Cellular kaempferol conjugates, rate: 0.004 nmol/h
  Total kaempferol conjugates, change vs no MK571: −51.5%
  Total kaempferol conjugates, rate: 2.684 nmol/h
[3]; [10]
  Apical kaempferol conjugates, change vs no MK571: −81.9%
  Apical kaempferol conjugates, rate: 0.382 nmol/h
  Basolateral kaempferol conjugates, change vs no MK571: −69.0%
  Basolateral kaempferol conjugates, rate: 1.062 nmol/h
  Cellular kaempferol conjugates, change vs no MK571: −24.2%
  Cellular kaempferol conjugates, rate: 0.003 nmol/h
  Total kaempferol conjugates, change vs no MK571: −73.9%
  Total kaempferol conjugates, rate: 1.447 nmol/h
[3]; [11]
  Apical quercetin conjugates, change vs no MK571: −37.1%
  Apical quercetin conjugates, rate: 0.706 nmol/h
  Basolateral quercetin conjugates, change vs no MK571: −56.3%
  Basolateral quercetin conjugates, rate: 1.275 nmol/h
  Cellular quercetin conjugates, change vs no MK571: −2.72%
  Cellular quercetin conjugates, rate: 0.004 nmol/h
  Total quercetin conjugates, change vs no MK571: −50.9%
  Total quercetin conjugates, rate: 1.985 nmol/h
[4]
  Apigenin sulfation: not inhibited
  Inhibition of apigenin glucuronidation: 30–40%
[5]; [12]
  Inhibition of chrysin glucuronide efflux: 71%
  Inhibition of chrysin sulphate efflux: 25%
[5]; 50 μM, ref [35]
  Efflux of methylated sulphate conjugates and sulphate conjugates of epigallocatechin: substantially inhibited
[5]; ref [36]
  Inhibition of apical efflux of epicatechin sulphate conjugates: > 50%
